System: rat small-intestinal brush border membrane vesicles
Assay: Inhibitory effect on 33PO4 uptake into rat small-intestinal brush border membrane vesicles (rapid filtration method)
Format: biochemical, Wistar female rat
Details: 1 µM test compound; 33PO4 uptake into rat small-intestinal BBMVs, 60 seconds
Method in brief: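 Uptake was terminated by ice-cold 110 mM NaCl, 1 mM KH2PO4, 10 mM HEPES (pH 7.5) buffer and immediate suction filtration, then washing. Using rat small-intestinal BBMVs, retained 33PO4 was quantified by liquid scintillation counting as transport activity.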

Row | Molecule | Rate of uptake inhibition (%) (1 µM)
1 | COC(=O)COc1ccc(CN2C(=O)C(C(=O)Nc3ccc(C(F)(F)F)cc3-c3ccc(C(F)(F)F)nc3)=C(O)[C@@]3(C)CCCN23)c(F)c1F [Example 150, Methyl 2-[4-[[(4aR)-4-Hydroxy-4a-methyl-2-oxo-3-[[4-(trifluoromethyl)-2-[6-(trifluoromethyl)pyridin-3-yl]phenyl]carbamoyl]-6,7-dihydro-5H-pyrrolo[1,2-b]pyridazin-1-yl]methyl]-2,3-difluorophenoxy] acetate] | 87%
2 | CN1N(Cc2ccc(OCCn3cncn3)c(F)c2F)C(=O)C(C(=O)Nc2ccc(C(F)(F)F)cc2-c2cc(C(F)(F)F)ncn2)=C(O)C12CCC2 [Example 352] | 27%
3 | CN1N(Cc2cccc(F)c2F)C(=O)C(C(=O)Nc2ccc(Cl)cc2-c2ccc(C(F)(F)F)nc2)=C(O)C12CCC2 [Example 256] | 79%
4 | CN1N(Cc2ccc(OCCOCCNCC(O)CO)c(F)c2F)C(=O)C(C(=O)Nc2ccc(C(F)(F)F)cc2-c2cc(C(F)(F)F)ncn2)=C(O)C12CCCC2 (stereo not shown) [Example 419, 7-[[4-[2-[2-(2,3-Dihydroxypropylamino)ethoxy]ethoxy]-2,3-difluorophenyl]methyl]-10-hydroxy-6-methyl-8-oxo-N-[4-(trifluoromethyl)-2-[6-(trifluoromethyl)pyrimidin-4-yl]phenyl]-6,7-diazaspiro[4.5]dec-9-ene-9-carboxamide] | 22%
5 | CN1CCC(Oc2ccc(CN3C(=O)C(C(=O)Nc4ccc(C(F)(F)F)cc4-c4cc(C(F)(F)F)ncn4)=C(O)C4(CCC4)N3C)c(F)c2F)CC1 [Example 411] | 32%
6 | CN1N(Cc2ccc(OCCCCCOC[C@H](O)CO)c(F)c2F)C(=O)C(C(=O)Nc2ccc(C(F)(F)F)cc2-c2cc(C(F)(F)F)ncn2)=C(O)C12CCCC2 [Example 394] | 45%
7 | COC(=O)c1cccc(CN2C(=O)C(C(=O)Nc3ccc(C(F)(F)F)cc3-c3cc(C(F)(F)F)ncn3)=C(O)[C@@]3(C)CCCN23)c1 [Example 183] | 82%
8 | C[C@]12CCCN1N(Cc1c(F)cc(OCCCCCCOC[C@@H](O)CO)cc1F)C(=O)C(C(=O)Nc1ccc(C(F)(F)F)cc1-c1ccc(C(F)(F)F)nc1)=C2O [Example 154] | 73%
9 | CN1N(Cc2ccc(OCCN3[C@@H]4COC[C@H]3C4)c(F)c2F)C(=O)C(C(=O)Nc2ccc(C(F)(F)F)cc2-c2cc(C(F)(F)F)ncn2)=C(O)C12CCC2 [Example 339] | 66%
10 | (4aR)-1-[(2,3-Difluorophenyl)methyl]-4a-ethyl-4-hydroxy-N-[5-methyl-2-(trifluoromethyl)furan-3-yl]-2-oxo-6,7-dihydro-5H-pyrrolo[1,2-b]pyridazine-3-carboxamide [Example 10] | 37%
11 | CN1CCN(CCOc2ccc(CN3C(=O)C(C(=O)Nc4ccc(C(F)(F)F)cc4-c4cc(C(F)(F)F)ncn4)=C(O)C4(CCC4)N3C)c(F)c2F)CC1=O [Example 359] | 37%
12 | C[C@]12CCCN1N(Cc1ccccc1Cl)C(=O)C(C(=O)Nc1cc(F)c(Br)c(F)c1)=C2O [Example 219] | 95%
13 | C[C@]12CCCN1N(Cc1cccc(Cl)c1)C(=O)C(C(=O)Nc1ccc(C(F)(F)F)cc1-c1cc(C(F)(F)F)ncn1)=C2O [Example 181] | 85%
14 | C[C@]12CCCN1N(Cc1ccccc1C#N)C(=O)C(C(=O)Nc1cc(F)c(Br)c(F)c1)=C2O [Example 218] | 82%
15 | CCCN(CCN(C)CCOC)c1ccc(CN2C(=O)C(C(=O)Nc3ccc(C(F)(F)F)cc3-c3cc(C(F)(F)F)ncn3)=C(O)C3(CCCC3)N2C)c(F)c1F [Example 444] | 24%
16 | CN1N(Cc2ccc(OCCCCCOC[C@H](O)CO)c(F)c2F)C(=O)C(C(=O)Nc2ccc(C(F)(F)F)cc2-c2ccc(C(F)(F)F)nc2)=C(O)C12CCC2 [Example 385] | 39%
17 | C[C@]12CCCN1N(Cc1cccc(F)c1F)C(=O)C(C(=O)Nc1ccc(C(F)(F)F)cc1-c1cncc(C(F)(F)F)c1)=C2O [Example 91] | 87%
18 | CN1[C@@H](C(C)(C)C)C(O)=C(C(=O)Nc2ccc(Br)c(C(F)(F)F)n2)C(=O)N1Cc1cccc(F)c1F [Example 242] | 69%
19 | COCCN(C)CCOCCOCCOc1ccc(CN2C(=O)C(C(=O)Nc3ccc(C(F)(F)F)cc3-c3cc(C(F)(F)F)ncn3)=C(O)C3(CCCC3)N2C)c(F)c1F [Example 430] | 29%
20 | CN1N(Cc2ccc(OCCN3CCC(N4CCOCC4)CC3)c(F)c2F)C(=O)C(C(=O)Nc2ccc(C(F)(F)F)cc2-c2cc(C(F)(F)F)ncn2)=C(O)C12CCCC2 [Example 374] | 42%
21 | COCCN1CC(Oc2ccc(CN3C(=O)C(C(=O)Nc4ccc(C(F)(F)F)cc4-c4cc(C(F)(F)F)ncn4)=C(O)C4(CCC4)N3C)c(F)c2F)C1 [Example 406, 6-[[2,3-Difluoro-4-[1-(2-methoxyethyl)azetidin-3-yl]oxyphenyl]methyl]-9-hydroxy-5-methyl-7-oxo-N-[4-(trifluoromethyl)-2-[6-(trifluoromethl)pyrimidin-4-yl]phenyl]-5,6-diazaspiro[3.5]non-8-ene-8-carboxamide] | 27%
22 | COC(=O)CN(C)CCOc1ccc(CN2C(=O)C(C(=O)Nc3ccc(C(F)(F)F)cc3-c3cc(C(F)(F)F)ncn3)=C(O)C3(CCC3)N2C)c(F)c1F [Example 346] | 42%
23 | CSc1ncc(-c2cc(C(F)(F)F)ccc2NC(=O)C2=C(O)[C@@]3(C)CCCN3N(Cc3ccc(C#CCCCCC(=O)O)c(F)c3F)C2=O)cn1 [Example 118, 7-[4-[[(4aR)-4-Hydroxy-4a-methyl-3-[[2-(2-methylsulfanylpyrimidin-5-yl)-4-(trifluoromethyl)phenyl]carbamoyl)-2-oxo-6,7-dihydro-5H-pyrrolo[1,2-b]pyridazin-1-yl]methyl]-2,3-difluorophenyl]hept-6-ynoate] | 81%
24 | C[C@]12CCCN1N(Cc1cccc(F)c1F)C(=O)C(C(=O)Nc1ccc(C(F)(F)F)cc1-c1ncnc(C#N)c1Cl)=C2O [Example 23] | 84%
25 | CN(C[C@H](O)[C@@H](O)[C@H](O)[C@H](O)CO)C(=O)COCCOCCOCCOCCOc1ccc(CN2C(=O)C(C(=O)Nc3ccc(C(F)(F)F)cc3-c3cc(C(F)(F)F)ncn3)=C(O)C3(CCCC3)N2C)c(F)c1F [Example 441, 7-[[2,3-Difluoro-4-[2-[2-[2-[2-[2-[methyl-[(2S,3R,4R,5R)-2,3,4,5,6-pentahydroxyhexyl]amino]-2-oxoethoxy]ethoxy]ethoxy]ethoxy]ethoxy]phenyl]methyl]-10-hydroxy-6-methyl-8-oxo-N-[4-(trifluoromethyl)-2-[6-(trifluoromethyl)pyrimidin-4-yl]phenyl]-6,7-diazaspiro[4.5]dec-9-ene-9-carboxamide] | 22%
26 | COc1cccc(-c2cc(C(F)(F)F)ccc2NC(=O)C2=C(O)[C@@]3(C)CCCN3N(Cc3ccc(C#CCOCCOCCOCCO)c(F)c3F)C2=O)c1OC [Example 136] | 80%
27 | Cc1nc(NC(=O)C2=C(O)[C@H](C(C)(C)C)N(C)N(Cc3cccc(F)c3F)C2=O)ccc1Br [Example 241] | 86%
28 | C[C@]12CCCN1N(Cc1cccc([N+](=O)[O-])c1)C(=O)C(C(=O)Nc1ccc(Br)c(F)c1)=C2O [Example 27] | 76%
